According to US10167262B2, “Herbicidal substituted 3-arylpyrazoles” (FMC CORPORATION, priority 2014, dated 2019):

Key:
Experiment in all cases: Test A pre-/postemergence greenhouse herbicide test, visual injury rating 0-100
Format in all cases: in vivo
corn (Zea mays) = tested on: corn (Zea mays)
From the text: (§1) Seeds of plant species selected from barnyardgrass (Echinochloa crus-galli), large (Lg) crabgrass (Digitaria sanguinalis), giant foxtail (Setaria faberii), morningglory (Ipomoea spp.), pigweed (Amaranthus retroflexus), velvetleaf (Abutilon theophrasti), wheat (Triticum aestivum), and corn (Zea mays) were planted into a blend of loam soil and sand and treated preemergence with a directed soil spray using test chemicals formulated in a non-phytotoxic solvent mixture which included a surfactant. At the same time these species were also treated with postemergence applications of test chemicals formulated in the same manner. Plants ranged in height from 2 to 10 cm and were in the one- to two-leaf stage for the postemergence treatment. Treated plants and untreated controls were maintained in a greenhouse for approximately 10 days, after which time all treated plants were compared to untreated controls and visually evaluated for injury. Plant response ratings, summarized in Table A, are based on a 0 to 100 scale where 0 is no effect and 100 is complete control. A dash (-) response means no test result.

[1] = tested on: barnyardgrass (Echinochloa crus-galli)
From the text: as §1

[2] = tested on: morningglory (Ipomoea spp.)
From the text: as §1

[3] = tested on: wheat (Triticum aestivum)
From the text: as §1

[4] = tested on: large (Lg) crabgrass (Digitaria sanguinalis)
From the text: as §1

[5] = tested on: pigweed (Amaranthus retroflexus)
From the text: as §1

[6] = tested on: giant foxtail (Setaria faberii)
From the text: as §1

[7] = tested on: velvetleaf (Abutilon theophrasti)
From the text: as §1

Clc1cc(Cl)cc(-c2n[nH]cc2C(=NN2CCCCC2)c2ccccc2)c1 [Compound 51]
Plant response rating (0 to 100 scale), Corn (corn (Zea mays); Postemergence, 1000 g ai/ha): 0 | Plant response rating (0 to 100 scale), Corn (corn (Zea mays); Preemergence, 1000 g ai/ha): 0 | Plant response rating (0 to 100 scale), Barnyardgrass ([1]; Postemergence, 1000 g ai/ha): 0 | Plant response rating (0 to 100 scale), Barnyardgrass ([1]; Preemergence, 1000 g ai/ha): 0 | Plant response rating (0 to 100 scale), Morningglory ([2]; Postemergence, 1000 g ai/ha): 0 | Plant response rating (0 to 100 scale), Morningglory ([2]; Preemergence, 1000 g ai/ha): 0 | Plant response rating (0 to 100 scale), Wheat ([3]; Postemergence, 1000 g ai/ha): 0 | Plant response rating (0 to 100 scale), Wheat ([3]; Preemergence, 1000 g ai/ha): 0 | Plant response rating (0 to 100 scale), Crabgrass, Large ([4]; Postemergence, 1000 g ai/ha): 0 | Plant response rating (0 to 100 scale), Crabgrass, Large ([4]; Preemergence, 1000 g ai/ha): 0 | Plant response rating (0 to 100 scale), Pigweed ([5]; Postemergence, 1000 g ai/ha): 90 | Plant response rating (0 to 100 scale), Pigweed ([5]; Preemergence, 1000 g ai/ha): 100 | Plant response rating (0 to 100 scale), Foxtail, Giant ([6]; Postemergence, 1000 g ai/ha): 0 | Plant response rating (0 to 100 scale), Foxtail, Giant ([6]; Preemergence, 1000 g ai/ha): 0 | Plant response rating (0 to 100 scale), Velvetleaf ([7]; Postemergence, 1000 g ai/ha): 90 | Plant response rating (0 to 100 scale), Velvetleaf ([7]; Preemergence, 1000 g ai/ha): 90

N#CN=C(c1ccccc1)c1c[nH]nc1-c1cc(Cl)cc(Cl)c1 [Compound 52]
Plant response rating (0 to 100 scale), Corn (corn (Zea mays); Postemergence, 1000 g ai/ha): 0 | Plant response rating (0 to 100 scale), Corn (corn (Zea mays); Preemergence, 1000 g ai/ha): 0 | Plant response rating (0 to 100 scale), Barnyardgrass ([1]; Postemergence, 1000 g ai/ha): 0 | Plant response rating (0 to 100 scale), Barnyardgrass ([1]; Preemergence, 1000 g ai/ha): 0 | Plant response rating (0 to 100 scale), Morningglory ([2]; Postemergence, 1000 g ai/ha): 0 | Plant response rating (0 to 100 scale), Morningglory ([2]; Preemergence, 1000 g ai/ha): 0 | Plant response rating (0 to 100 scale), Wheat ([3]; Postemergence, 1000 g ai/ha): 0 | Plant response rating (0 to 100 scale), Wheat ([3]; Preemergence, 1000 g ai/ha): 0 | Plant response rating (0 to 100 scale), Crabgrass, Large ([4]; Postemergence, 1000 g ai/ha): 0 | Plant response rating (0 to 100 scale), Crabgrass, Large ([4]; Preemergence, 1000 g ai/ha): 0 | Plant response rating (0 to 100 scale), Pigweed ([5]; Postemergence, 1000 g ai/ha): 90 | Plant response rating (0 to 100 scale), Pigweed ([5]; Preemergence, 1000 g ai/ha): 50 | Plant response rating (0 to 100 scale), Foxtail, Giant ([6]; Postemergence, 1000 g ai/ha): 0 | Plant response rating (0 to 100 scale), Foxtail, Giant ([6]; Preemergence, 1000 g ai/ha): 0 | Plant response rating (0 to 100 scale), Velvetleaf ([7]; Postemergence, 1000 g ai/ha): 100 | Plant response rating (0 to 100 scale), Velvetleaf ([7]; Preemergence, 1000 g ai/ha): 60

O=C(c1ccccc1)c1cn(CC(F)F)nc1-c1cc(Cl)cc(Cl)c1 [Compound 59]
Plant response rating (0 to 100 scale), Corn (corn (Zea mays); Postemergence, 125 g ai/ha): 0 | Plant response rating (0 to 100 scale), Corn (corn (Zea mays); Postemergence, 500 g ai/ha): 0 | Corn plant response rating (0 = no effect, 100 = complete control) (corn (Zea mays); Preemergence, 125 g ai/ha): 0 | Plant response rating (0 to 100 scale), Corn (corn (Zea mays); Preemergence, 500 g ai/ha): 0 | Plant response rating (0 to 100 scale), Barnyardgrass ([1]; Postemergence, 125 g ai/ha): 0 | Plant response rating (0 to 100 scale), Barnyardgrass ([1]; Postemergence, 500 g ai/ha): 0 | Barnyardgrass plant response rating (0 = no effect, 100 = complete control) ([1]; Preemergence, 125 g ai/ha): 0 | Plant response rating (0 to 100 scale), Barnyardgrass ([1]; Preemergence, 500 g ai/ha): 0 | Plant response rating (0 to 100 scale), Morningglory ([2]; Postemergence, 125 g ai/ha): 0 | Plant response rating (0 to 100 scale), Morningglory ([2]; Postemergence, 500 g ai/ha): 0 | Morningglory plant response rating (0 = no effect, 100 = complete control) ([2]; Preemergence, 125 g ai/ha): 0 | Plant response rating (0 to 100 scale), Morningglory ([2]; Preemergence, 500 g ai/ha): 0 | Plant response rating (0 to 100 scale), Wheat ([3]; Postemergence, 125 g ai/ha): 0 | Plant response rating (0 to 100 scale), Wheat ([3]; Postemergence, 500 g ai/ha): 0 | Wheat plant response rating (0 = no effect, 100 = complete control) ([3]; Preemergence, 125 g ai/ha): 0 | Plant response rating (0 to 100 scale), Crabgrass, Large ([4]; Postemergence, 125 g ai/ha): 0 | Plant response rating (0 to 100 scale), Crabgrass, Large ([4]; Postemergence, 500 g ai/ha): 0 | Crabgrass, Large plant response rating (0 = no effect, 100 = complete control) ([4]; Preemergence, 125 g ai/ha): 0 | Plant response rating (0 to 100 scale), Crabgrass, Large ([4]; Preemergence, 500 g ai/ha): 0 | Plant response rating (0 to 100 scale), Pigweed ([5]; Postemergence, 125 g ai/ha): 60 | Plant response rating (0 to 100 scale), Pigweed ([5]; Postemergence, 500 g ai/ha): 80 | Pigweed plant response rating (0 = no effect, 100 = complete control) ([5]; Preemergence, 125 g ai/ha): 0 | Plant response rating (0 to 100 scale), Pigweed ([5]; Preemergence, 500 g ai/ha): 30 | Plant response rating (0 to 100 scale), Foxtail, Giant ([6]; Postemergence, 125 g ai/ha): 0 | Plant response rating (0 to 100 scale), Foxtail, Giant ([6]; Postemergence, 500 g ai/ha): 0 | Foxtail, Giant plant response rating (0 = no effect, 100 = complete control) ([6]; Preemergence, 125 g ai/ha): 0 | Plant response rating (0 to 100 scale), Foxtail, Giant ([6]; Preemergence, 500 g ai/ha): 0 | Plant response rating (0 to 100 scale), Velvetleaf ([7]; Postemergence, 125 g ai/ha): 50 | Plant response rating (0 to 100 scale), Velvetleaf ([7]; Postemergence, 500 g ai/ha): 70 | Velvetleaf plant response rating (0 = no effect, 100 = complete control) ([7]; Preemergence, 125 g ai/ha): 0 | Plant response rating (0 to 100 scale), Velvetleaf ([7]; Preemergence, 500 g ai/ha): 40
